Experimental data as given in US8344028B2, “Gamma-amino-butyric acid derivatives as GABAB receptor ligands” (XenoPort, Inc., priority 2009, dated 2013).
Counter-ions that a name gives are not always drawn.

Columns and labels:
GABAB receptor [1] = molecular target: GABAB receptor (Homo sapiens, UniProt Q9UBS5); test: GABAB receptor agonist or partial agonist activity by binding, electrophysiology, cAMP and/or Ca2+ assay methods (Examples 83-86); assay type: cell-based
Outline: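 Binding: rat cortex membranes in 50 mM Tris pH 7.4 with 100 μM isoguvacine were preincubated 10 min at RT with compound, then radiolabeled CGP54626 (1-10 nM) was added; filtered and scintillation-counted. cAMP: GABAB R1a2 HEK cells, 1 h RT with 100 μM forskolin, chemiluminescence.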

[2] = molecular target: T1, recombinant human GABABR1a2 (Homo sapiens, UniProt Q9UBS5); test: Ca2+ assay for determining GABAB receptor agonist activity; assay type: cell-based; details: cells expressing recombinant human GABABR1a2
T1 construct: expressed in transfected cells; host or cells: HEK cells
Procedure: The following procedure was used to determine the GABAB receptor agonist activity of a compound as reflected by activation of Ca^2+ signaling. HEK TREx cells expressing GABABR1a2 under tetracycline induction control, and Gqi chimeric protein (expressed constitutively), allowing GABABR coupling through the Ca^2+ signaling pathway were used in the experiments.
Cells were seeded in media containing tetracycline overnight at 100,000 cells/well, in black, clear-bottom, 96-well plates. The following morning, cells were washed twice with 100 μL HBSS buffer per well. Fluorescent Ca^2+ indicator dye was prepared using the materials and procedure described in the F362056 Fluo-4 NW Calcium Assay Kit (Invitrogen, Carlsbad, Calif.). Ten (10) mL of kit buffer and 100 μl of kit Probenecid were added to individual kit dye vials, and rolled back and forth several times to dissolve the dye. Cells were then loaded into the dye solution at 50 μL per well. The cells and dye were incubated for 30 min at 37° C., and then incubated for an additional 30 min at room temperature in the dark. Test compounds are dissolved in HBSS buffer at twice final concentration. Duplicate wells were used for each unique condition. Solution containing the test compound was added to the wells using a FLEXStation II (Molecular Devices, Sunnyvale, Calif.). Using the instrument in kinetic mode in which each well was read every 2 sec over a total collection time of 50 sec fluorescence was measured using an excitation wavelength 494 nm and a detection wavelength of 516 nm. A normalized fluorescence value for each well was calculated using the following procedure. The difference in fluorescence at 35 sec (usually representing maximal response) and at 15 sec (a time point prior to addition of test compounds) was calculated, divided by the fluorescence at 15 sec, and the result multiplied by 100. The final value represented the percent increase in fluorescence relative to the fluorescence at 15 sec. Data was analyzed using standard procedures.

GABAB receptor [3] = molecular target: T2, GABAB receptor (Rattus norvegicus, UniProt Q9Z0U4); test: [3H]CGP54626 rat brain GABAB receptor binding assay; details: [3H]CGP54626 rat brain binding assay
T2 construct: from tissue; host or cells: rat cerebral cortex membranes
Procedure: An assay using rat cerebral cortex membranes was used to determine the affinity of GABAB receptor ligands for the GABAB receptor.
An assay buffer of 50 mM Tris pH 7.4 was prepared with 100 μM of isoguvacine, to block GABAA interactions. The assay buffer with isoguvacine was used for dilution of membranes, compounds, and radiolabel.
Rat cerebral cortex membranes were diluted in assay buffer at 1 mg/mL and aliquoted into a 96-well plate at 900 μL/well. Buffer or test compound were added at 20-times final concentration in the buffer at 50 μL/well. Membranes and test compounds or buffer were incubated for 10 min. at room temperature. Radiolableled [S—(R*,R*)]-[3-[[1-(3,4-dichlorophenyl)ethyl]amino]-2-hydroxypropyl](cyclohexylmethyl) phosphinic acid (CGP54626) was then added at 50 μL/well in the buffer at 1-10 nM concentration in 50 μl. The mixture was incubated for 15 min. at room temperature. The assay mixture was filtered using Brandell filtration apparatus and GFB filters, washed twice with 3 mL of 4° C., 50 mM Tris pH 7.4, buffer without isoguvacine. The filters were then dried at room temperature and the dried filters punched out and placed in individual vials. Three (3) mL of scintillation fluid was added to each vial and the radiolabel counted on the scintillation counter. The inverse amount of radiolabel was indicative of binding of a test compound to the GABAB receptor.

[4] = molecular target: T1, recombinant human GABABR1a2; test: cAMP assay for determining GABAB receptor agonist activity; assay type: cell-based
Procedure: The following procedure was used to determine the level of intracellular cAMP. Recombinant HEK cells expressing the GABAB R1a2 receptor were used in the experiments. cAMP levels were measured using a cAMP XS^+ HitHunter™ Chemiluminescence Assay Kit (90-0075-02, GE Healthcare Biosciences Corp.). Cells were seeded overnight at 5,000 cells per well, in black, clear bottom 96-well plates. The following morning, cells were washed twice with 100 μL PBS per well. Forskolin was weighed out and dissolved in DMSO to a final concentration 100 mM. One-hundred (100) μM forskolin solutions were prepared in PBS with and without test compound at 1-times final concentration. Thirty (30) μL of the test solutions were added to the wells and incubated for 1 h at room temperature. The cAMP concentration was determined according to the protocol described in the cAMP assay kit, maintaining the plate at room temperature and in the dark. Two hours after the final kit reagent was added, the plate bottom was covered with black tape, and the plate read using a 1450 MicroBeta Trilux microplate scintillation and luminescence counter (PerkinElmer, Waltham, Mass.). Each well was read for 6 seconds. The untransformed data was then analyzed.

[5] = cells expressing recombinant human GABABR1a2, read-out: cAMP EC50

T1 sequence (Q9UBS5 15-961 limits assumed): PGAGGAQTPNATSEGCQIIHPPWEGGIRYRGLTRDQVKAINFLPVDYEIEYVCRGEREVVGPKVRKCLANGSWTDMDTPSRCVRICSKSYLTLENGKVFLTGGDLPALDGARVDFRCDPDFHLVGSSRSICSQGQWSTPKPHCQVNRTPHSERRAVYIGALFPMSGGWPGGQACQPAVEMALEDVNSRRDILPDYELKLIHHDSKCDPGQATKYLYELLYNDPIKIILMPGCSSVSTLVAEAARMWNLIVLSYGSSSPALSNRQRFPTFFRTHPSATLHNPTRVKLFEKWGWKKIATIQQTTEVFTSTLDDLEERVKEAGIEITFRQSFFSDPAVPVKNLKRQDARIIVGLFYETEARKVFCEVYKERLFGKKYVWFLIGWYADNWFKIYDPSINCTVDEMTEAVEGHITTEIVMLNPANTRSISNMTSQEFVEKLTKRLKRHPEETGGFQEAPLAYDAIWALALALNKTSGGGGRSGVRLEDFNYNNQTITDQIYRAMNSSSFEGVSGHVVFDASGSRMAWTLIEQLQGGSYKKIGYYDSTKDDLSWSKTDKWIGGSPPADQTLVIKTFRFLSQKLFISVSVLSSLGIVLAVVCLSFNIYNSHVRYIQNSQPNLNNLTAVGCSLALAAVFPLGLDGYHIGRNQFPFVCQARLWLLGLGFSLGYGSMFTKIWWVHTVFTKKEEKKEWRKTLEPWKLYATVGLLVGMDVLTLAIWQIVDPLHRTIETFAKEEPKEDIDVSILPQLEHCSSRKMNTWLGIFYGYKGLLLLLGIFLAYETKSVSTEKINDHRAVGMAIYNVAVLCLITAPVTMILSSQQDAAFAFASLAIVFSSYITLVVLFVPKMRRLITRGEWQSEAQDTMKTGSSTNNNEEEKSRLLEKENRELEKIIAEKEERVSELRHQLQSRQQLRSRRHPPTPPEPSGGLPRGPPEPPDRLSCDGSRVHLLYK
T1 sequence (O75899 42-941 partner): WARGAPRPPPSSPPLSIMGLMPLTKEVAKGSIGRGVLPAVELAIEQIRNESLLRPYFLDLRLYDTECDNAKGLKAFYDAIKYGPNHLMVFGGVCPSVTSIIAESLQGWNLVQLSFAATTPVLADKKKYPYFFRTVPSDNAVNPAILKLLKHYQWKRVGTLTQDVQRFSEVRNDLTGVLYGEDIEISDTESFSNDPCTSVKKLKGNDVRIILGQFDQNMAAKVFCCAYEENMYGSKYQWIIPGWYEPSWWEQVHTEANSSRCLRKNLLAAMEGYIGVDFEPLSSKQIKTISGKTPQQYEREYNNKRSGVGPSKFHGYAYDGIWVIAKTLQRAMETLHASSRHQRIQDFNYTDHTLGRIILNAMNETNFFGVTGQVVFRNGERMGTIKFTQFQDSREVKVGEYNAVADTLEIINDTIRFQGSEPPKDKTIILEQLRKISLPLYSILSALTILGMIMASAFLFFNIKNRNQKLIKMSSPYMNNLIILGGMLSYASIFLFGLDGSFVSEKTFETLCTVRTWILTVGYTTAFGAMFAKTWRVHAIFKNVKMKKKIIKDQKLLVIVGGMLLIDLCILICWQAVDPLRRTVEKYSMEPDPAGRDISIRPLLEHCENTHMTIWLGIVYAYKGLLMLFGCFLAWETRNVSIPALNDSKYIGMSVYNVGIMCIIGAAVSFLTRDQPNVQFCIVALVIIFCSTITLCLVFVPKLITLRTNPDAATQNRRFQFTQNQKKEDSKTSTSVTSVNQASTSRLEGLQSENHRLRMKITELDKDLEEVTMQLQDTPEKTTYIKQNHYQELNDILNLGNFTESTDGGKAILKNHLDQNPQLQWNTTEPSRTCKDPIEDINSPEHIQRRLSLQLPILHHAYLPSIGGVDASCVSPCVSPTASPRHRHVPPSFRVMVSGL
GABAB receptor (Homo sapiens, UniProt Q9UBS5), sequence (Q9UBS5 20-961): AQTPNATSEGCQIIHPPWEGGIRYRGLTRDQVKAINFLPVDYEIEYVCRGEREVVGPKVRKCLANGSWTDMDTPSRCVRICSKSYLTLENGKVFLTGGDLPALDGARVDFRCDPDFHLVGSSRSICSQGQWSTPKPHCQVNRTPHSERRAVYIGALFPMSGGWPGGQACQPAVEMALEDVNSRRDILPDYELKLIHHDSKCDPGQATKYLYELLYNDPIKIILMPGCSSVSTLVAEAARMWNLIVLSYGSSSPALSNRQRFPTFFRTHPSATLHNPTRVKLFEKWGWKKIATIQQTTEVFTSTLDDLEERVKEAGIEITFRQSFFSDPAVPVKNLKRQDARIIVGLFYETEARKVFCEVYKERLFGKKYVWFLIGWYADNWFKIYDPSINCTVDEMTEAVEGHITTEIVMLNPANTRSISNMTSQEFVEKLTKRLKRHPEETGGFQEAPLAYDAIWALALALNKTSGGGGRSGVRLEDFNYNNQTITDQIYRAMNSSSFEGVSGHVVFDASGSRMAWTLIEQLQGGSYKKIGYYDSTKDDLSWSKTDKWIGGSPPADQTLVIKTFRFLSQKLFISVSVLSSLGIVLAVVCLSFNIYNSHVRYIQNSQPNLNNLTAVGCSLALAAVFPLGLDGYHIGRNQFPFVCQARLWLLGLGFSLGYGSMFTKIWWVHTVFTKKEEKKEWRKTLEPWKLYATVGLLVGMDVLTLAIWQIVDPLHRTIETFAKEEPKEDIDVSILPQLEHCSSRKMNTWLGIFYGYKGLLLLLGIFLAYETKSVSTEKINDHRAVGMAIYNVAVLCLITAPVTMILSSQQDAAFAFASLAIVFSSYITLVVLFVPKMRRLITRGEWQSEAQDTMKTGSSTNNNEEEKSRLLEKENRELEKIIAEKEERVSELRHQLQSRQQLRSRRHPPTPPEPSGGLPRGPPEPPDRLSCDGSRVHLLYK
GABAB receptor (Homo sapiens, UniProt Q9UBS5), sequence (O75899 42-941 partner): as the sequence (O75899 42-941 partner) above
T2 sequence (Q9Z0U4 20-960): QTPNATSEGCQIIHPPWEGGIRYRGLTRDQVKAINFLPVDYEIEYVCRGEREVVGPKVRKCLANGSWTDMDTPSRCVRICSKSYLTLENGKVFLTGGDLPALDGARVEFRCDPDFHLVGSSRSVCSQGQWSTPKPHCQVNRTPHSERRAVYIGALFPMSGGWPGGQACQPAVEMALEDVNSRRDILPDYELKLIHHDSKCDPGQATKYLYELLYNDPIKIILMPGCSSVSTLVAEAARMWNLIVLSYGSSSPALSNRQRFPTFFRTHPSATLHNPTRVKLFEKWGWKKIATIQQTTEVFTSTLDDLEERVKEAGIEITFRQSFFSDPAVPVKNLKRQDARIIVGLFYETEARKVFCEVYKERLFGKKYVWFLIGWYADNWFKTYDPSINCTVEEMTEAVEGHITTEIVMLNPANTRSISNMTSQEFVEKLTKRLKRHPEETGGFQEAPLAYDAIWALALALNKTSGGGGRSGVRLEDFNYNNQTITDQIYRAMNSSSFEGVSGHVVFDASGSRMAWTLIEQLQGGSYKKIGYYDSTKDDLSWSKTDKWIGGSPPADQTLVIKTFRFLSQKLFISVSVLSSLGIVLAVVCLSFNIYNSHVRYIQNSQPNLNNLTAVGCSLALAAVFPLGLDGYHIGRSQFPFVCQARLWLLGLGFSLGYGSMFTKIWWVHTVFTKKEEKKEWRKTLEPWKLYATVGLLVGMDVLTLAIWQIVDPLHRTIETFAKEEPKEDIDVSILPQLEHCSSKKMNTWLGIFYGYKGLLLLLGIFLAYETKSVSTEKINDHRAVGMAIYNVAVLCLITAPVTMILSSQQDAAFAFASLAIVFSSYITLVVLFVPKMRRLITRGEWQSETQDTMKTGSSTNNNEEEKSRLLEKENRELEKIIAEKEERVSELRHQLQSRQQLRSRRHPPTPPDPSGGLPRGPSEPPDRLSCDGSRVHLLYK
T2 sequence (O88871 41-940 partner): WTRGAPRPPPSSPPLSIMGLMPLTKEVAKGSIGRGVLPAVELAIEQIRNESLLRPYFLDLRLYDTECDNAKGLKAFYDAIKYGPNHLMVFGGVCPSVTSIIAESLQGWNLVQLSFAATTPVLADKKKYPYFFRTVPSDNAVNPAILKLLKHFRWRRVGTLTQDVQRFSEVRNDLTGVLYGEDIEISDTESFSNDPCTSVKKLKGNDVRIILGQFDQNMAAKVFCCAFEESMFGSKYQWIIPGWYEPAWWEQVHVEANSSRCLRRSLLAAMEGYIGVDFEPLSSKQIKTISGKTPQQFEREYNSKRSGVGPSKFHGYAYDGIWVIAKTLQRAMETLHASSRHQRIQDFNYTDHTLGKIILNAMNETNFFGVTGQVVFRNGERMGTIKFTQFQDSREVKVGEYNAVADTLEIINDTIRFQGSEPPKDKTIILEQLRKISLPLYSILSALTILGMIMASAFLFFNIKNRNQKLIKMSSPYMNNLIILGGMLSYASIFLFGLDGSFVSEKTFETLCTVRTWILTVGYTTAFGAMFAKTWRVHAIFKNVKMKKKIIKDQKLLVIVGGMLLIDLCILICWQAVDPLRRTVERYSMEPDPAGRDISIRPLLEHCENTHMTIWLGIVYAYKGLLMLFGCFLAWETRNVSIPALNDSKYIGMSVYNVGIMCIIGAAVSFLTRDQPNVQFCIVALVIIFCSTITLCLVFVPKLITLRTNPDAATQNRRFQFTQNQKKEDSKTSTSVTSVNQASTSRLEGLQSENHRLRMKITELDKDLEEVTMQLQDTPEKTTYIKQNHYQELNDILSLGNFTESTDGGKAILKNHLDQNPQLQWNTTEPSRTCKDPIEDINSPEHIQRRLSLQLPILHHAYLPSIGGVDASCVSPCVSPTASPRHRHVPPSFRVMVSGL

| Compound | GABAB receptor agonist or partial agonist activity (GABAB receptor [1]) | EC50 [2] [nM] | IC50 (GABAB receptor [3]) [nM] | EC50 [4, 5] [nM] | EC50 [4] [nM] |
| --- | --- | --- | --- | --- | --- |
| Cl.NC[C@H](CC(=O)O)c1ccc(Cl)c(-c2ccc(F)c(C(=O)O)c2)c1 [5-{5-[(1R)-2-amino-1-(carboxymethyl)ethyl]-2-chlorophenyl}-2-fluorobenzoic acid hydrochloride] | agonist or partial agonist activity | < 700 | < 25000 | < 100 |  |
| Cl.NC[C@H](CC(=O)O)c1ccc(Cl)c(CCc2ccncc2)c1 [(3R)-4-amino-3-[4-chloro-3-(2-(4-pyridyl)ethyl)phenyl]butanoic acid hydrochloride] | agonist or partial agonist activity | < 700 | < 25000 | < 100 |  |
| Cl.N#Cc1cc(F)cc(-c2cc([C@H](CN)CC(=O)O)ccc2Cl)c1 [(3R)-4-amino-3-[4-chloro-3-(3-cyano-5-fluorophenyl)phenyl]butanoic acid hydrochloride] | agonist or partial agonist activity | < 700 | < 25000 | < 100 |  |
| Cl.N#Cc1ccc(F)c(-c2cc([C@H](CN)CC(=O)O)ccc2Cl)c1 [(3R)-4-amino-3-[4-chloro-3-(3-cyano-6-fluorophenyl)phenyl]butanoic acid hydrochloride] | agonist or partial agonist activity | < 700 | < 25000 | < 100 |  |
| Cc1ccc(C#N)cc1-c1cc([C@H](CN)CC(=O)O)ccc1Cl.Cl [(3R)-4-amino-3-[4-chloro-3-(3-cyano-6-methylphenyl)phenyl]butanoic acid hydrochloride] | agonist or partial agonist activity | < 700 | < 25000 | < 100 |  |
| Cc1ccncc1-c1cc([C@H](CN)CC(=O)O)ccc1Cl.Cl [(3R)-4-amino-3-[4-chloro-3-(4-methyl(3-pyridyl))phenyl]butanoic acid hydrochloride] | agonist or partial agonist activity | < 700 | < 25000 | < 100 |  |
| Cl.N#Cc1ccc(Cl)c(-c2cc([C@H](CN)CC(=O)O)ccc2Cl)c1 [(3R)-4-amino-3-[4-chloro-3-(6-chloro-3-cyanophenyl)phenyl]butanoic acid hydrochloride] | agonist or partial agonist activity | < 700 | < 25000 | < 100 |  |
| Cl.NC[C@H](CC(=O)O)c1ccc(Cl)c(-c2cccnc2)c1 [Example 32, (3R)-4-Amino-3-(4-chloro-3-(3-pyridyl)phenyl)butanoic acid hydrochloride] | agonist or partial agonist activity | < 700 | < 25000 | < 100 |  |
| Cl.N#Cc1cccc(-c2cc([C@H](CN)CC(=O)O)ccc2Cl)c1 [Example 33, (3R)-4-Amino-3-[4-chloro-3-(3-cyanophenyl)phenyl]butanoic acid hydrochloride] | agonist or partial agonist activity | < 700 | < 25000 | < 100 |  |
| Cl.NC[C@H](CC(=O)O)c1ccc(Cl)c(-c2cc(C(=O)O)ccc2Cl)c1 [Example 46, 3-{5-[(1R)-2-Amino-1-(carboxymethyl)ethyl]-2-chlorophenyl}-4-chlorobenzoic acid hydrochloride] | agonist or partial agonist activity | < 700 | < 25000 | < 100 |  |
| Cl.NC[C@H](CC(=O)O)c1ccc(Cl)c(-c2cc(F)cc(C(=O)O)c2)c1 [Example 50, 3-{5-[(1R)-2-Amino-1-(carboxymethyl)ethyl]-2-chlorophenyl}-5-fluorobenzoic acid hydrochloride] | agonist or partial agonist activity | < 700 | < 25000 | < 100 |  |
| NCC(C[PH](=O)O)c1ccc(Cl)c(OCc2ccncc2)c1 (centres unmarked) [Example 82, 2-{4-Chloro-3-(4-pyridylmethoxy)phenyl]-3-(hydrohydroxyphosphoryl)propylamine] |  | < 700 | < 25000 |  | < 100 |
| COC(=O)C[C@@H](CN)c1ccc(Cl)c(OCc2ccncc2)c1 [methyl (3R)-4-amino-3-[4-chloro-3-(4-pyridylmethoxy)phenyl]butanoate hydrochloride] |  | < 700 | < 25000 | < 100 |  |

The next lines start with results.

| GABAB receptor agonist or partial agonist activity (GABAB receptor [1]) | EC50 [2] [nM] | IC50 (GABAB receptor [3]) [nM] | EC50 [4, 5] [nM] | Compound | EC50 [4] [nM] |
| --- | --- | --- | --- | --- | --- |
| agonist or partial agonist activity | < 700 | < 25000 | < 100 | Cl.NC[C@H](CC(=O)O)c1ccc(Cl)c(OCc2cccnc2)c1 [(3R)-4-amino-3-[4-chloro-3-(3-pyridylmethoxy)phenyl]butanoic acid hydrochloride] |  |
| agonist or partial agonist activity | < 700 | < 25000 | < 100 | Cl.NC[C@H](CC(=O)O)c1ccc(Cl)c(-c2cccc(C(=O)O)c2)c1 [Example 25, 3-{5-[(1R)-2-Amino-1-(carboxymethyl)ethyl]-2-chlorophenyl}benzoic acid hydrochloride] |  |
| agonist or partial agonist activity | < 700 | < 25000 | < 100 | Cl.NC[C@H](CC(=O)O)c1ccc(Cl)c(-c2csc(C(=O)O)c2)c1 [Example 27, 4-{5-[(1R)-2-Amino-1-(carboxymethyl)ethyl]-2-chlorophenyl}thiophene-2-carboxylic acid hydrochloride] |  |
| agonist or partial agonist activity | < 700 | < 25000 | < 100 | N#Cc1ccc(-c2cc([C@H](CN)CC(=O)O)ccc2Cl)s1 [Example 29, (3R)-4-Amino-3-[4-chloro-3-(5-cyano-2-thienyl))phenyl]butanoic acid hydrochloride] |  |
| agonist or partial agonist activity | < 700 | < 25000 | < 100 | Cl.NC[C@H](CC(=O)O)c1ccc(Cl)c(-c2cccc([N+](=O)[O-])c2)c1 [Example 37, (3R)-4-Amino-3-[4-chloro-3-(3-nitrophenyl)phenyl]butanoic acid hydrochloride] |  |
| agonist or partial agonist activity | < 700 | < 25000 | < 100 | Cl.NC[C@H](CC(=O)O)c1ccc(Cl)c(-c2cccc(C(N)=O)c2)c1 [Example 52, (3R)-4-Amino-3-[3-(3-carbamoylphenyl)-4-chlorophenyl]butanoic acid hydrochloride] |  |
